Results from US6461997B1, “Triazole sulfones having herbicidal activity” (Monsanto Technology LLC, priority 1999, dated 2002).

Tests used:
[1] = tested on: SORHA (johnsongrass (seedling)); assay: Pre-emergence herbicidal activity, warm season; assay type: in vivo, Sorghum halepense; conditions: GR80 = lowest tested rate (300, 100, 30, 10 g/ha) with 80% or greater inhibition; approx. 14 days after treating; 30/21° C.
Summary of the method: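 Seeds sown in sterilised fertilised topsoil received surface-applied compound in 50:50 acetone/water, typically at 300, 100, 30 and 10 g/ha, then greenhouse-grown at 30/21° C (warm-season species) or 18/13° C (cool-season species). Percent inhibition versus untreated plants was scored at about 14 days, giving GR80; an asterisk marks activity short of 80% at the top rate.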

[2] = tested on: DIGSA (large crabgrass); assay: Pre-emergence herbicidal activity, warm season; assay type: in vivo, Digitaria sanguinalis; conditions: GR80 = lowest tested rate (300, 100, 30, 10 g/ha) with 80% or greater inhibition; approx. 14 days after treating; 30/21° C.
Summary of the method: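 Each pot received seeds on sterilized fertilized topsoil, a soil cover, and a surface spray of compound (300–10 g/ha, acetone/water 50:50). Plants grew about 14 days at 30/21 °C (PANMI, DIGSA) or 18/13 °C (ALOMY, POLCO) before inhibition was rated against untreated pots to give GR80.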

[3] = tested on: POLCO (wild buckwheat); assay: Pre-plant incorporated (PPI) herbicidal activity, cool season; assay type: in vivo, Polygonum convolvulus; conditions: for Percent inhibition POLCO: weed, PPI application; for PPI activity GR80, POLCO: pre-plant incorporated, lowest tested rate with 80% or greater inhibition, about 14 days
Experimental: (§1) In another set of tests, the pre-plant incorporated (PPI) activity of compounds of this invention was evaluated on the same species as for the pre-emergence tests described above. In the PPI tests the following procedure, designed to simulate PPI application, was used.
(§2) A pre-prepared topsoil mixture (described above) was placed in a pot and compacted to a depth of 1.0 to 1.25 cm from the top of the pot. Seeds of each of several monocotyledonous and dicotyledonous annual plant species were placed on top of the soil. A sufficient quantity of soil to cover the seeds and level fill the pot was weighed into an open container. A known amount of the test compound was dissolved or suspended in an organic solvent and applied by spraying to this cover soil. The cover soil was thoroughly mixed to distribute the test compound throughout the cover soil, and was then applied as a cover layer over the seeds. Untreated soil was used as a cover layer for control pots. After treatment the plants were placed in a greenhouse where they received 0.64 cm of overhead irrigation. All subsequent watering consisted of a light overhead mist and/or subirrigation as needed for germination and growth. Tables 9 and 10 below relate to warm season plant species which were placed after pre-emergence treatment in a greenhouse with a 30/21° C. day/night temperature regime. Tables 11 and 12 below relates to cool season plant species placed after pre-emergence treatment in a greenhouse or growth chamber with an 18/13° C. day/night temperature regime. Only the compounds of Examples 1, 6, 8, 11, 13 and 15-20 were included in PPI tests.
(§3) Approximately 14 days after planting and treating, the plants were observed and herbicidal efficacy recorded as percent inhibition by comparison with untreated plants.

[4] = tested on: SETVI (green foxtail); assay: as above; assay type: in vivo, Setaria viridis; conditions: for Percent inhibition SETVI: weed, PPI application; for PPI activity GR80, SETVI: pre-plant incorporated, lowest tested rate with 80% or greater inhibition, about 14 days
Experimental: as §1, §2, §3

[5] = tested on: rice (ORYSA); assay: Selectivity test, PPI, warm season crop; assay type: in vivo, Oryza sativa; conditions: PPI application
Experimental: as §2, §3
Additional pre-emergence and PPI tests were conducted by the procedures described above, on warm and cool season weed species in the presence of crop species, to assess herbicidal selectivity. Crop species included in warm season tests were corn (Zea mays, ZEAMX), rice (Oryza sativa, ORYSA) and soybean (Glycine max, GLYMX). Crop species included in cool season tests were wheat (Triticum aestivum, TRZAW), barley (Hordeunm vulgare, HORVX) and oilseed rape (Brassica napus, BRSNS).
Tables 15 and 16 relate to pre-emergence and PPI tests respectively on warm season species. Table 17 relates to pre-emergence tests on cool season species.

[6] = tested on: ALOMY (blackgrass); assay: Post-emergence herbicidal activity, cool season; assay type: in vivo, Alopecurus myosuroides; conditions: abraded plants sprayed at 300, 100, 30 and 10 g/ha; about 14 days after treatment
Experimental: In another set of tests, the post-emergence activity of compounds of this invention was evaluated on the cool season species listed above. The following procedure was used.
A pre-prepared topsoil mixture (described above) was placed in a pot and compacted to a depth of 1.0 to 1.25 cm from the top of the pot. Seeds of each of several monocotyledonous and dicotyledonous annual plant species were placed on top of the soil. The seeds were covered with a mixture of 50% topsoil and 50% Rediearth™ in sufficient quantity to level-fill the pots. The pots were then placed on a greenhouse bench and subirrigated as needed.
When plants growing from the seeds had emerged and reached a suitable growth stage for post-emergence treatment, typically 9 to 14 days after planting, above-ground parts of the plants were subjected to a pre-treatment involving abrasion to create greater opportunity for foliar uptake of subsequently applied compounds. Abrasion was performed using garnet 200w particles applied with a Sears Craftsman hand-held sandblaster operated at approximately 850 kPa (50 psig) pressure.
A known amount of each test compound dissolved or suspended in an appropriate organic solvent was diluted with a 50:50 mix of acetone and water and applied to the plants by spraying with a standard spray nozzle in a spray volume of […] at a spray pressure of 511 kPa (30 psig). Only the compounds of Examples 1, 8-15 and 17-22 were included in post-emergence tests. Application rates for these compounds were 300, 100, 30 and 10 g/ha. Control plants were abraded but not sprayed.
After treatment the plants were placed in a greenhouse with an 18/13° C. day/night temperature regime and were subsequently watered as needed for growth. Approximately 14 days after treatment, the plants were observed and herbicidal efficacy recorded as percent inhibition by comparison with control plants. GR80 values were assigned for each compound as described above for the pre-emergence tests.

Row | Structure (SMILES) | Pre-emergence activity (GR80) SORHA [1] | Pre-emergence activity (GR80) DIGSA [2] | Percent inhibition POLCO ([3]; 30 g/ha) | Percent inhibition POLCO ([3]; 100 g/ha) | Percent inhibition POLCO ([3]; 300 g/ha) | Percent inhibition POLCO ([3]; 900 g/ha) | Percent inhibition SETVI ([4]; 30 g/ha) | Percent inhibition SETVI ([4]; 100 g/ha) | Percent inhibition SETVI ([4]; 300 g/ha) | Percent inhibition SETVI ([4]; 900 g/ha) | Percent inhibition ORYSA ([5]; 30 g/ha) | Percent inhibition ORYSA ([5]; 100 g/ha) | Percent inhibition ORYSA ([5]; 300 g/ha) | Percent inhibition ORYSA ([5]; 900 g/ha) | PPI activity GR80, POLCO [3] | Percent inhibition POLCO ([3]; 10 g/ha) | PPI activity GR80, SETVI [4] | Percent inhibition SETVI ([4]; 10 g/ha) | Post-emergence activity GR80, ALOMY [6] | Percent inhibition ORYSA ([5]; 10 g/ha)
1 | CCN(CC)C(=O)n1cnc(S(=O)(=O)C(F)(F)F)n1 [Example 2] | 100 g/ha | 300 g/ha | 40% | 40% | 65% | 100% | 80% | 100% | 100% | 100% | 0% | 0% | 0% | 30% |  |  |  |  |  | 
2 | CCN(CC)C(=O)n1cnc(S(=O)(=O)C(F)(F)SCC(=O)OC)n1 [Example 11] | 300 g/ha |  | 0% | 0% | 0% | 30% | 90% | 99% | 95% | 100% | 0% | 0% | 40% | 40% | * (activity observed, at least at highest rate, but <80% inhibition) | 0% | 300 g/ha | 80% | [empty] | 0%
3 | CCN(CC)C(=O)n1cnc(S(=O)(=O)C(F)(F)C(F)F)n1 [Example 16] | 100 g/ha | 30 g/ha | 0% | 0% | 0% | 95% | 80% | 95% | 100% | 100% | 0% | 30% | 90% | 100% | 100 g/ha | 0% | 10 g/ha | 100% |  | 0%
4 | CCN(CC)C(=O)n1cnc(S(=O)(=O)C(F)(F)Cl)n1 [Example 3] | 100 g/ha | 100 g/ha | 60% | 70% | 90% | 100% | 100% | 100% | 100% | 100% | 0% | 0% | 20% | 70% |  |  |  |  |  | 
5 | CCN(CC)C(=O)n1cnc(S(=O)(=O)C(F)(F)C(F)(F)SC)n1 [Example 14] | 300 g/ha | 100 g/ha |  |  |  |  |  |  |  |  |  |  |  |  |  |  |  |  | [empty] | 
6 | CCN(CC)C(=O)n1cnc(S(=O)(=O)C(F)(F)C(F)(F)Br)n1 [Example 4] | 30 g/ha | 100 g/ha | 0% | 60% | 90% | 100% | 99% | 100% | 100% | 100% | 0% | 0% | 0% | 20% |  |  |  |  |  | 
7 | CCN(CC)C(=O)n1cnc(S(=O)(=O)C(F)(F)C(=O)c2ccccc2)n1 [Example 6] | 100 g/ha | 300 g/ha |  |  |  |  |  |  |  |  |  |  |  |  | 300 g/ha |  | 300 g/ha |  |  | 
8 | CCN(CC)C(=O)n1cnc(S(=O)(=O)C(F)(F)SCCOC)n1 [Example 13] |  |  | 50% | 40% | 80% | 90% | 95% | 100% | 100% | 100% | 30% | 70% | 60% | 80% | * (activity observed, at least at highest rate, but <80% inhibition) | 0% | 100 g/ha | 30% | [empty] | 0%
